Read-outs that look alike come from different tables or passages of the source.
How the values were obtained:
[1] = system: L. infantum promastigotes; test: Leishmanicidal assay using L. infantum promastigotes (resazurin); assay type: cell-based, Leishmania infantum; settings: 20–2.5 μM, 24 h, Fig 2C
Method: Promastigotes of L. infantum (1x10^6 parasites/well) were distributed in 96-well plates, and the test compounds (cytochalasins A-D) were added at concentrations of 20–2.5 μM. The plates were incubated under the same conditions as previously described for 24 h. The leishmanicidal activity was determined by adding 20 μL of resazurin (Sigma-Aldrich), and the plates were incubated for 4 h. The absorbance was measured at 536 and 588 nm in an automated SpectraMax Gemini microplate reader, and the data were analysed using GraphPad Prism version 8.0 for the CC50 value calculation. The percentage of nonviable parasites was determined and compared to the negative control wells.

[2] = system: intracellular L. infantum amastigotes; test: microbe, parasite or virus in culture; assay type: cell-based, Leishmania infantum; settings: for IC50: intracellular amastigotes in THP-1 macrophages, 120 h, read-out: L. infantum IC50 (μM ± SD); for SI^2 (CC50 THP-1/IC50 L. infantum) / SI^4 (CC50 HepG2/IC50 L. infantum): selectivity index
Method: The epimastigote forms of the T. cruzi Tulahuen strain, which expresses the E. coli β-galactosidase gene lacZ [11], were grown in liver infusion tryptone (LIT) supplemented with 10% FCS (Cultilab) and 1% pen/strep (Sigma–Aldrich) at 28°C. Metacyclogenesis from epimastigotes to trypomastigotes was induced by the incubation of the epimastigotes in Grace’s insect medium (Sigma-Aldrich, 28°C) every 5 days. After 5 days, the trypomastigote forms were used to infect the HFF-1 cells. The promastigote forms of L. infantum were maintained in Schneider’s insect medium (Sigma-Aldrich) supplemented with 10% FCS (Cultilab) and 1% pen/strep (Sigma-Aldrich) at 28°C and subcultured every 6 or 7 days.
In the intracellular amastigote assay, THP-1 cells were seeded at 2x10^4/well (RPMI-1640, 100 μL) with phorbol 12-myristate 13-acetate (PMA) at 20 ng/mL for differentiation into macrophages. After incubation for 72 h (5% CO2, 37°C), the medium was aspirated, and late-stage L. infantum promastigotes were added (2x10^5/well, 100 μL). Following 24 h of incubation, the medium was aspirated to clear extracellular parasites, and the compounds were added in serial dilutions (2-fold) to final concentrations of 64–0.12 μM. The plates included negative controls (100% growth) and MIL (64–0.12 μM) as a positive control. After 120 h of incubation, the medium was removed, and the cells were fixed in methanol and stained with Giemsa. The average number of intracellular amastigotes per THP-1-cell was determined using an inverted microscope and a cell counter. Growth inhibition is expressed as a percentage of the average number of amastigotes per macrophage in the negative control wells. The IC50 values were obtained using GraphPad Prism version 8.0.
The analyses were performed using GraphPad Prism version 8.0 (GraphPad Software, San Diego, CA, USA). Both the IC50 and CC50 values were calculated by adjusting the sigmoid dose-response curves, and the selectivity index (SI) values were determined by CC50/IC50 [16]. Statistical analyses were performed using one-way ANOVA followed by Dunnett’s multiple comparison test.

[3] = Leishmania infantum, THP-1, 120 h

Row | Structure (SMILES) | toxicity to L. infantum promastigote parasites [1] | IC50 [2, 3] [µM] | SI^2 (CC50 THP-1/IC50 L. infantum) [2] | SI^4 (CC50 HepG2/IC50 L. infantum) [2] | IC50 [2] [µM]
1 | C=C1[C@@H](C)[C@H]2[C@H](Cc3ccccc3)NC(=O)[C@]23OC(=O)/C=C/C(=O)CCC[C@@H](C)C/C=C/[C@H]3[C@@H]1O [Cytochalasin A] | toxic | 2.76 ± 1.17 | 6.17 | 7.65 | –
2 | C=C1[C@@H](C)[C@H]2[C@H](Cc3ccccc3)NC(=O)[C@]23OC(=O)/C=C/[C@H](O)CCC[C@@H](C)C/C=C/[C@H]3[C@@H]1O [Cytochalasin B] | – | 22 to 23 | 4.57 | 1.93 | 23.9 ± 3.02
3 | CC(=O)OC1C=CC(C)(O)C(=O)C(C)CC=CC2C(O)C(C)=C(C)C3C(Cc4ccccc4)NC(=O)C123 (stereo not drawn) [Cytochalasin C] | toxic | 23.2 ± 4.9 | 3.65 | 0.96 | –
4 | C=C1[C@@H](C)[C@H]2[C@H](Cc3ccccc3)NC(=O)[C@]23[C@H](OC(C)=O)/C=C/[C@@](C)(O)C(=O)[C@@H](C)C/C=C/[C@H]3[C@@H]1O [Cytochalasin D] | – | 22.5 ± 0.97 | 5.42 | 5.46 | –

Source: publication PMC9529094, “Identification of natural cytochalasins as leads for neglected tropical diseases drug discovery” (PLoS ONE, 2022)
